Experimental data published in ChEMBL document CHEMBL6087458, “The Discovery of a Novel AXL/Triple Angiokinase Inhibitor Based on 6-Chloro-Substituted Indolinone and Side Chain Methyl Substitution Inhibiting Pancreatic Cancer Growth and Metastasis” (J Med Chem, 2025).
The source made the active and inactive calls. No cut-off for these calls is given here.

Columns and labels:
[1] = Antiproliferative activity against human HUVEC cells cultured as 3D tumor spheroids assessed as cell viability incubated for 72 hrs by CCK-8 assay; format: toxicity, cell-based
[2] = system: MDA-MB-231; assay: Effect on E-cadherin expression in TGF-beta induced human MDA-MB-231 cells at 0.1 to 0.5 uM incubated for 24 hrs by immunofluorescence assay; format: functional, cell-based; conditions: dose 0.1-0.5 µM
[3] = system: MDA-MB-231; assay: Inhibition of colony formation in human MDA-MB-231 cells at 0.5 uM incubated for 72 hrs; format: functional, cell-based
[4] = AUC (0 to last) in Sprague-Dawley rat at 5 mg/kg, iv; format: ADME, organism-based; conditions: Sprague-Dawley, in vivo
[5] = Toxicity in mouse implanted with human BXPC-3 cells assessed as body weight loss at 25 to 50 mg/kg, po measured on day 11; format: organism-based; conditions: in vivo, 264 h, dose 25-50 mg/kg, time 11 day
[6] = system: A549/TR; assay: cells; conditions: Homo sapiens, 72 h
Description: Antiproliferative activity against human A549/Taxol cells assessed as cell viability incubated for 72 hrs by MTT assay

[7] = molecular target: BDNF/NT-3 growth factors receptor (Homo sapiens) (UniProt Q16620); assay: Inhibition of TRKB (unknown origin) by envision reader analysis
BDNF/NT-3 growth factors receptor (Homo sapiens), sequence (Q16620 32-822 limits assumed): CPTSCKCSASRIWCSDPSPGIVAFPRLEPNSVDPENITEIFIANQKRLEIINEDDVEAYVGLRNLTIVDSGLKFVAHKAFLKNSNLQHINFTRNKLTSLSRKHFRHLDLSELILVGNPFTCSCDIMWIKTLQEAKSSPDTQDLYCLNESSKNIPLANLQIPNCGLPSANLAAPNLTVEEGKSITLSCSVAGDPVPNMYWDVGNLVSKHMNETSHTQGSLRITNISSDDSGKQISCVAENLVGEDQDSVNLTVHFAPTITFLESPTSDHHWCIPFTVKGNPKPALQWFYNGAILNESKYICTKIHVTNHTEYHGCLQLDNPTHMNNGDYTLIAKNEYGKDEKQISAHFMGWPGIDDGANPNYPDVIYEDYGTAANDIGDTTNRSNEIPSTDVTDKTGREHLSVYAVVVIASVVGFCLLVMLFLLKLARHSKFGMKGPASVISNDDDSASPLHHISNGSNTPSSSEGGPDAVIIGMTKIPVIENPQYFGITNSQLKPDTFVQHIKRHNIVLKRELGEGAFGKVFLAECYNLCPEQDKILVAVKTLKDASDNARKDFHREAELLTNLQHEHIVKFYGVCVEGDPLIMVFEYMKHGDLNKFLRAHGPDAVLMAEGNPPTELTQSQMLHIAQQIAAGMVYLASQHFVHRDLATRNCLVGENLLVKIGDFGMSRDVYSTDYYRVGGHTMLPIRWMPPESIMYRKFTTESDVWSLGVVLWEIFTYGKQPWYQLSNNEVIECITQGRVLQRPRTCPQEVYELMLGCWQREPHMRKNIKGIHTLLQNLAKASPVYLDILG

[8] = system: BXPC-3; assay: Antitumor activity against human BXPC-3 cells xenografted in mouse assessed as reduction in tumor weight at 50 mg/kg, po administered for 14 days; format: functional; set-up: scale not given: the % may be the effect or the level left; conditions: time 14 day
[9] = system: MDA-MB-231; assay: Induction of apoptosis in human MDA-MB-231 cells assessed as increase in BAX expression at 0.1 to 1 uM incubated for 24 hrs by Western blot analysis; format: functional, cell-based; conditions: dose 0.1-1 µM
[10] = system: MDA-MB-231; assay: Effect on N-cadherin expression in TGF-beta induced human MDA-MB-231 cells at 0.1 to 0.5 uM incubated for 24 hrs by immunofluorescence assay; format: functional, cell-based; conditions: dose 0.1-0.5 µM
[11] = Toxicity in mouse implanted with human BXPC-3 cells assessed as spleen damage at 50 mg/kg, po by H and E staining based analysis; format: organism-based; conditions: in vivo
[12] = system: SW480; assay: cells; conditions: Homo sapiens, SW480, 72 h
Description: Antiproliferative activity against human SW480 cells assessed as cell viability incubated for 72 hrs by MTT assay

[13] = molecular target: Signal transducer and activator of transcription 3 (Homo sapiens) (UniProt P40763); assay: Inhibition of STAT3 phosphorylation in human MDA-MB-231 cells incubated for 24 to 72 hrs by Western blot analysis; format: cell-based; conditions: dose <= 5.0 µM, time 24-72 hrs
Signal transducer and activator of transcription 3 (Homo sapiens), sequence (P40763 whole entry): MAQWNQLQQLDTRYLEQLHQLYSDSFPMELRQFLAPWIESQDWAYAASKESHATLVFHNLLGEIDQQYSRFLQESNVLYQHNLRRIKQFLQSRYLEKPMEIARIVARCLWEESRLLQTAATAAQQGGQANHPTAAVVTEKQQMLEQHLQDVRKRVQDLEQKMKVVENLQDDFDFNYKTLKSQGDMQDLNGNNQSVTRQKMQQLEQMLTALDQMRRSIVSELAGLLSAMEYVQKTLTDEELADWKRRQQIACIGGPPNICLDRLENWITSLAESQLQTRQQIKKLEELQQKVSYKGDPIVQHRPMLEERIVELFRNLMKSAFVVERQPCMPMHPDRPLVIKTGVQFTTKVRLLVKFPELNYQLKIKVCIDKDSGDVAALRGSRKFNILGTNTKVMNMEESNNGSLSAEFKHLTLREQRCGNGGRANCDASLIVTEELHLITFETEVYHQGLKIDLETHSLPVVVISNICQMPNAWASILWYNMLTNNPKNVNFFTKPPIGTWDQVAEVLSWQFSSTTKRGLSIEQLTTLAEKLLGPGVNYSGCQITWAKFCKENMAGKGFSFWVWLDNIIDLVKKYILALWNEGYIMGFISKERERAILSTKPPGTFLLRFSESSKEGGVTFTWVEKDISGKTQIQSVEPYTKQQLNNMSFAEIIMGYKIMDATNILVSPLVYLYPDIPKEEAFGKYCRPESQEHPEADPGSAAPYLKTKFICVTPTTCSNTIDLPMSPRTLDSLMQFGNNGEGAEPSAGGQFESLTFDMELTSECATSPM

[14] = system: Mitochondrial membrane; assay: Induction of mitochondrial membrane potential depolarization in human BXPC-3 cells at 0.2 to 0.5 uM incubated for 24 hrs by JC-1 staining based flow cytometry analysis; format: cell membranes; conditions: dose 0.2-0.5 µM
[15] = cells; conditions: Homo sapiens, CDDP-resistant A549 cell, 72 h
Description: Antiproliferative activity against human CDDP-resistant A549 cell assessed as cell viability incubated for 72 hrs by MTT assay

[16] = molecular target: Fibroblast growth factor receptor (Homo sapiens) (UniProt P22607+P11362+P22455+P21802); assay: Inhibition of FGFR (unknown origin) by envision reader analysis; format: protein assay
Fibroblast growth factor receptor (Homo sapiens), sequence (P11362 whole entry, looked up): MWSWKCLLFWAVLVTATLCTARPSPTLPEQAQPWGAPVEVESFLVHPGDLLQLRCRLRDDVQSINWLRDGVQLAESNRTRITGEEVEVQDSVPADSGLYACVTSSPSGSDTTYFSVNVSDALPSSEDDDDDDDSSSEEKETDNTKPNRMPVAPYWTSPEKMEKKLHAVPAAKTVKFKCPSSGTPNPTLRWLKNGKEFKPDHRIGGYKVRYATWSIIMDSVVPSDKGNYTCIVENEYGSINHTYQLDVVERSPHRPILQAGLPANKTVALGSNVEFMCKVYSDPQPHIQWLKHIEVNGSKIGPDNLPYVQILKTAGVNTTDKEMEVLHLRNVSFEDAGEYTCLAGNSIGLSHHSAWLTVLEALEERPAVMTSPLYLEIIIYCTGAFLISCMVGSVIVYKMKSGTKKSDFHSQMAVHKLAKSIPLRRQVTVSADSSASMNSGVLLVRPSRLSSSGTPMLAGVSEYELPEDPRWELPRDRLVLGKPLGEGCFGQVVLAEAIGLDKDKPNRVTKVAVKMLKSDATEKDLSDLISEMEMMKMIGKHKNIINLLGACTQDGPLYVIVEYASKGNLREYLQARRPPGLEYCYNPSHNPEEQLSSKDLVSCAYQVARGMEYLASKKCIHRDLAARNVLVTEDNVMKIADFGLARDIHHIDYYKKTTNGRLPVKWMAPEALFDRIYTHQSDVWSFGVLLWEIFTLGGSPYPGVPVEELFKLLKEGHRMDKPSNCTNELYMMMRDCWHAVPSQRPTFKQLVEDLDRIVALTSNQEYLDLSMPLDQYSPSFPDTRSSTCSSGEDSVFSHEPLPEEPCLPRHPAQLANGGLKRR
Fibroblast growth factor receptor (Homo sapiens), sequence (P21802 whole entry, looked up): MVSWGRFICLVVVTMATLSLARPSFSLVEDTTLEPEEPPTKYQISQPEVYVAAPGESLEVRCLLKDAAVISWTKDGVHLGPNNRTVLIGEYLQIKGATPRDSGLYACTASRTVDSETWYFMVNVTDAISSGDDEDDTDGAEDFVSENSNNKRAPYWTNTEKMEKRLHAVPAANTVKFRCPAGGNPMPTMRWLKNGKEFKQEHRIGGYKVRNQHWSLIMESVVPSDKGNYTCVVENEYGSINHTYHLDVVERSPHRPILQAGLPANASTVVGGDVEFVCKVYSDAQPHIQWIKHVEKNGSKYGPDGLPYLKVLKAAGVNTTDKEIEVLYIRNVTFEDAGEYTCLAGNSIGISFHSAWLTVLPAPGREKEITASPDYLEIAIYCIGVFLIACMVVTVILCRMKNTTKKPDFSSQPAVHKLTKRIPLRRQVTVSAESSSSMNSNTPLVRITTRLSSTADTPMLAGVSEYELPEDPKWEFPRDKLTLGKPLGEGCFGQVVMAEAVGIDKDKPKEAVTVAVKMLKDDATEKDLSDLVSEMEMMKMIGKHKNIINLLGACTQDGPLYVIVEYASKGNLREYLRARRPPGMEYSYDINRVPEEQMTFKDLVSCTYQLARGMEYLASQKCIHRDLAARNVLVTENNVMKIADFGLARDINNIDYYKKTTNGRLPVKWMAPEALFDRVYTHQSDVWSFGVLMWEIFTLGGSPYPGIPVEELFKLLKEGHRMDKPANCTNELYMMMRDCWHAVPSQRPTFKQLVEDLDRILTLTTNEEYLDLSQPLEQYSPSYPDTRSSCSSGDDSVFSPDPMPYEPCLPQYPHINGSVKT
Fibroblast growth factor receptor (Homo sapiens), sequence (P22455 whole entry, looked up): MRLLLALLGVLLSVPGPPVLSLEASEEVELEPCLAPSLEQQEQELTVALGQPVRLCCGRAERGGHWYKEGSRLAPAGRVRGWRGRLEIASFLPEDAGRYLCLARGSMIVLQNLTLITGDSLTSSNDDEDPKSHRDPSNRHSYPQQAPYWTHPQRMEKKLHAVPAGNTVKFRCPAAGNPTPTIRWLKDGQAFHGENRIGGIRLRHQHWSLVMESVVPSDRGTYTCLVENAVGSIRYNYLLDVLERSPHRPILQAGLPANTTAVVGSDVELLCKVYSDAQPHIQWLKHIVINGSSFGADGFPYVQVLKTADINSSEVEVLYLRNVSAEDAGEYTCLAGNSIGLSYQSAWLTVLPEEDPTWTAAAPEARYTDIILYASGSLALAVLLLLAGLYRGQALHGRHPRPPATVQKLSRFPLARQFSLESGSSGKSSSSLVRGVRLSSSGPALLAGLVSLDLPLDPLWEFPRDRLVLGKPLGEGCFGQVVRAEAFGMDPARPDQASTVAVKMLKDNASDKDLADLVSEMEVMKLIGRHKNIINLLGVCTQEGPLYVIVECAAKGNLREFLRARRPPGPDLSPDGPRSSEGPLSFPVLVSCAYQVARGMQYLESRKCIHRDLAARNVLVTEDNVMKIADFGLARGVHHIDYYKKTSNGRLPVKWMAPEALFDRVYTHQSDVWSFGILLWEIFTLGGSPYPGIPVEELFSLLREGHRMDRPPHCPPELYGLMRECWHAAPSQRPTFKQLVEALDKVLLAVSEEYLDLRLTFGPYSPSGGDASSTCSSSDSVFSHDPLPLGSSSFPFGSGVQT
Fibroblast growth factor receptor (Homo sapiens), sequence (P22607 whole entry, looked up): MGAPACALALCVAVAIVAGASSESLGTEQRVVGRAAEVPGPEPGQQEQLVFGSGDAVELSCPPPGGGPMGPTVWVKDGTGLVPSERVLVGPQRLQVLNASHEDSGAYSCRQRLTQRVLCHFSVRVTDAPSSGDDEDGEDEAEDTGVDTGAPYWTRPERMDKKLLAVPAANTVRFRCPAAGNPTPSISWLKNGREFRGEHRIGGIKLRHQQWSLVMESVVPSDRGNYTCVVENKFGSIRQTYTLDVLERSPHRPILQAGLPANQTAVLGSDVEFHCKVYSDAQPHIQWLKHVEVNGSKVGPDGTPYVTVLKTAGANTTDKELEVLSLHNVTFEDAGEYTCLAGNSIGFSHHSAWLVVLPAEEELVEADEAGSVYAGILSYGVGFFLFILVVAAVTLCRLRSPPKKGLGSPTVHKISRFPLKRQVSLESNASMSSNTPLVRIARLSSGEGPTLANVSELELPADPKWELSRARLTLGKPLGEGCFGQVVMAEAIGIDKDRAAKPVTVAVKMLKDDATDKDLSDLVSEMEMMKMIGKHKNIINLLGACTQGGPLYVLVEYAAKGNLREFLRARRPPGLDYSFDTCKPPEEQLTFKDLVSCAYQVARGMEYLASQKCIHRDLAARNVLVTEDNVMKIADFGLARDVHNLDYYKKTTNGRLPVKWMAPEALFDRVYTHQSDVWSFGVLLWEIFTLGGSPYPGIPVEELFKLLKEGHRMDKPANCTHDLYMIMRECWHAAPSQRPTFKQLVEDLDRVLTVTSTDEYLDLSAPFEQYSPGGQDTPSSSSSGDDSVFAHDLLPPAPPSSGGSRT

[17] = system: BXPC-3; assay: Antitumor activity against human BXPC-3 cells xenografted in mouse assessed as tumor growth inhibition at 25 mg/kg, po administered for 14 days; format: functional; conditions: BXPC-3, 336 h, time 14 day, read-out: TGI
[18] = Cytotoxicity against human HUVEC cells assessed as cell viability incubated for 72 hrs by MTT assay; format: toxicity, cell-based
[19] = Tmax in Sprague-Dawley rat at 50 mg/kg, po; format: ADME, organism-based; conditions: in vivo
[20] = system: HUVEC; assay: Inhibition of VEGFR phosphorylation in HUVEC cells at 0.5 to 2 uM incubated for 24 hrs by Western blot assay; format: cell-based; conditions: Homo sapiens, dose 0.5-2 µM
[21] = system: BXPC-3; assay: Induction of apoptosis in human BXPC-3 cells assessed as increase in BAX expression at 0.1 to 1 uM incubated for 24 hrs by Western blot analysis; format: functional, cell-based; conditions: dose 0.1-1 µM
[22] = Toxicity in mouse implanted with human BXPC-3 cells at 25 to 50 mg/kg, po measured on day 11; format: organism-based; conditions: in vivo, 264 h, dose 25-50 mg/kg, time 11 day
[23] = Toxicity in mouse implanted with human BXPC-3 cells assessed as kidney damage at 50 mg/kg, po by H and E staining based analysis; format: organism-based; conditions: in vivo
[24] = molecular target: Signal transducer and activator of transcription 3 (Homo sapiens) (UniProt P40763); assay: Inhibition of STAT3 phosphorylation in human BXPC-3 cells incubated for 24 to 72 hrs by Western blot analysis; format: cell-based; conditions: dose <= 5.0 µM, time 24-72 hrs
[25] = system: MKN-45; assay: cells; conditions: Homo sapiens, MKN-45, 72 h
Description: Antiproliferative activity against human MKN-45 cells assessed as cell viability incubated for 72 hrs by MTT assay

[26] = system: BXPC-3; assay: Inhibition of colony formation in human BXPC-3 cells at 0.5 uM incubated for 72 hrs; format: functional, cell-based
[27] = Cytotoxicity against human HaCaT cells assessed as inhibition of cell growth; format: toxicity, cell-based
[28] = Cytotoxicity against human HEK293 cells assessed as inhibition of cell growth; format: toxicity, cell-based
[29] = Cytotoxicity against human HK-2 cells assessed as inhibition of cell growth; format: toxicity, cell-based
[30] = system: Osimertinib-resistant NCI-H1975 cell; assay: cells; conditions: Homo sapiens, 72 h
[31] = system: MDA-MB-231; assay: Induction of apoptosis in human MDA-MB-231 cells assessed as decrease in Bcl-2 expression at 0.1 to 1 uM incubated for 24 hrs by Western blot analysis; format: functional, cell-based; conditions: dose 0.1-1 µM
[32] = system: NCI-H1975; assay: cells; conditions: Homo sapiens, NCI-H1975, 72 h
Description: Antiproliferative activity against human NCI-H1975 cells assessed as cell viability incubated for 72 hrs by MTT assay

[33] = system: MDA-MB-231; conditions: Homo sapiens, MDA-MB-231, 168 h
[34] = system: Mitochondrial membrane; assay: Induction of mitochondrial membrane potential depolarization in human MDA-MB-231 cells at 0.2 to 0.5 uM incubated for 24 hrs by JC-1 staining based flow cytometry analysis; format: cell membranes; conditions: dose 0.2-0.5 µM
[35] = system: HUVEC; assay: Anti-angiogenesis activity in HUVEC assessed as reduction in number of vascular nodes at 0.5 to 2 uM incubated for 24 hrs by Calcein AM staining based light microscopic analysis; format: functional, cell-based; conditions: Homo sapiens, dose 0.5-2 µM
[36] = system: NIH3T3; assay: Antiproliferative activity against mouse NIH/3T3 cells cultured as 3D tumor spheroids assessed as reduction in pseudopodia on cell surface; format: functional, cell-based

CCN1CCN(C(C)C(=O)N(C)c2ccc(N/C(=C3\C(=O)Nc4cc(Cl)ccc43)c3ccccc3)cc2)CC1 (racemic)
IC50 at 72 h [1]: 1.54 µM
Activity [2]: Active
inhibition [3]: Active
AUC(0-t) [4]: 1770 ng·h/mL
Activity [5]: Non-toxic
IC50 [6]: 4.77 µM
inhibition [7]: Active
Activity [8]: 56.46%
Activity [9]: Active
Activity [10]: Active
Activity [11]: Non-toxic
IC50 [12]: 5.91 µM
inhibition [13]: Dose-dependent-effect
Activity [14]: Active
IC50 [15]: 5.4 µM
inhibition [16]: Active
inhibition in vivo at 25 mg/kg [17]: 96.7%
IC50 at 72 h [18]: 0.43 µM
Tmax [19]: 8 h
inhibition [20]: Active
Activity [21]: Active
Activity [22]: Non-toxic
Activity [23]: Non-toxic
inhibition [24]: Dose-dependent-effect
IC50 [25]: 1.26 µM
inhibition [26]: Active
IC50 [27]: > 10 µM
IC50 [28]: > 10 µM
IC50 [29]: 8.35 µM
IC50 [30]: 1.12 µM
Activity [31]: Active
IC50 [32]: 4.38 µM
IC50 [33]: 2.22 µM
Activity [34]: Active
Activity [35]: Active
Activity [36]: Active
